{
  "source": "patent US20100239500A1",
  "about": "“SUBSTITUTED TRIAZINE COMPOUNDS FOR NERVE REGENERATION” (priority 2007, published 2010)",
  "key": {"cPKC": {"system": "cPKC", "assay": "In vitro PKC assay", "assay_type": "biochemical", "conditions": "preincubated directly with the enzyme; lead compounds at concentrations optimally effective on cells"}, "CGNs": {"system": "CGNs", "assay": "Neurite growth of CGNs on permissive substrates (PDL, laminin)", "assay_type": "cell-based", "conditions": "CGNs on PDL or laminin (LN)", "description": "CGNs were cultured on PDL or laminin (LN) substrates in the absence or presence of one of the four lead compounds, or on LN in the presence of Gö6976. Neurons grew neurites on PDL, and grew longer neurites on LN.\n(§1) The triazine compounds were added to cultures of primary cerebellar granule neurons (CGNs) to test their ability to promote neurite growth on an inhibitory substrate (PDL/central nervous system myelin). […] The compounds can promote growth on other inhibitory substrates as well. When a mixture of inhibitory chondroitin sulfate proteoglycans (CSPGs) on PDL was used as a substrate, neurite growth of CGNs was increased by each compound, as shown in FIG. 3. The compounds evidently act by overcoming inhibitory signals."}, "[1]": {"system": "cerebellar granule neurons (CGNs)", "assay": "Neurite growth of CGNs on CSPG substrates", "assay_type": "cell-based", "conditions": "laminin/CSPG substrate", "description": "as §1"}, "E15 rat spinal neurons": {"system": "E15 rat spinal neurons", "assay": "Growth of spinal neurons on CSPG substrates", "assay_type": "cell-based", "conditions": "two days", "description": "E15 rat spinal neurons were cultured on LN, or on LN and CSPGs (LN/CSPG) for two days. They were stained for nuclei (blue) and neuronal beta-tubulin (green)."}, "cAMP levels in CGNs": {"system": "cAMP levels in CGNs", "assay": "cAMP levels in CGNs", "assay_type": "cell-based", "conditions": "two hours, PDL or PDL/myelin, forskolin at concentrations indicated in chart", "description": "CGNs were cultured for two hours on PDL or on PDL/myelin in the absence or presence of the four lead compounds at […] (F) at the concentrations indicated in the chart. Forskolin increased neuronal cAMP levels by 100-250-fold, while the lead compounds produced no significant increases."}, "[2]": {"system": "cerebellar granule neurons (CGNs)", "assay": "High-content screen and dose-response of CGN neurite growth on PDL/myelin", "assay_type": "cell-based", "conditions": "library compounds at 5 μM shown", "description": "FIG. 2 is data from a high-content screen of neurite growth on […] (PDL)/myelin. The data for 312 compounds are summarized for total neurite growth normalized to the PDL control. The first three bars show PDL (blue), PDL/myelin (red), and PDL/myelin/dbcAMP (green). […] Straight lines drawn across data represent growth levels with dbcAMP, PDL, myelin, and 50% of the myelin level. The majority of compounds had little or no effect at the concentrations tested (5 μM is shown). […] These four compounds are subsequently referred to as lead compounds.\nCGNs were cultured on PDL (control) or on myelin in the presence of the 4 hit compounds at concentrations (in nM) shown. The Cellomics Kinetic Scan Reader (an automated microscope) was used to evaluate average neurite length per neuron in each condition. Growth on myelin in the absence of compounds was set at 100% (origin of y-axis). The black horizontal line represents growth on the control (PDL) substrate; thus growth at or above this line represents complete reversal of the myelin inhibition. Each compound completely reversed growth inhibition by the myelin.\nThe triazine compounds were added to cultures of primary cerebellar granule neurons (CGNs) to test their ability to promote neurite growth on an inhibitory substrate (PDL/central nervous system myelin). […] The compounds can promote growth on other inhibitory substrates as well. […]"}},
  "data": [
    {"molecule": "Calphostin C", "values": [
      {"measurement": "effect on cPKC activity", "setting": "cPKC", "result": "inhibits cPKC"}
    ]},
    {"molecule": "Cn1c2ccccc2c2c3c(c4c5ccccc5n(CCC#N)c4c21)CNC3=O", "note": "[Go6976]", "values": [
      {"measurement": "neurite growth on permissive substrates", "setting": "CGNs", "result": "significantly increased growth on LN"},
      {"measurement": "neurite growth on LN/CSPG mixture", "setting": "[1]", "result": "largely reversed"},
      {"measurement": "growth of spinal neurons on LN/CSPG", "setting": "E15 rat spinal neurons", "result": "somewhat restored"}
    ]},
    {"molecule": "C=C[C@@]1(C)CC(=O)[C@]2(O)[C@@]3(C)[C@@H](O)CCC(C)(C)[C@@H]3[C@H](O)[C@H](OC(C)=O)[C@@]2(C)O1", "note": "[Forskolin, forskolin]", "values": [
      {"measurement": "increase of neuronal cAMP levels", "setting": "cAMP levels in CGNs", "result": "100-250 fold"}
    ]},
    {"molecule": "CCCC(=O)Nc1ncnc2c1ncn2[C@@H]1O[C@@H]2COP(=O)(O)O[C@H]2[C@H]1OC(=O)CCC", "note": "[dbcAMP]", "values": [
      {"measurement": "total neurite growth normalized to the PDL control", "setting": "[2]", "result": "inhibition is overcome"}
    ]}
  ]
}
